Assay [1] deals with T1, RXFP4 (Homo sapiens, UniProt Q8TDU9).
T1 construct: expressed in transfected cells
The experiment in a line: cAMP activity (inhibition of forskolin-induced cAMP), CHO-K1 cells expressing RXFP4. It counts as cell-based. The note with it: CHO-K1 RXFP4, pCRE-β-galactosidase reporter; forskolin 5 µM (method) / 1 µM (Fig. 3 legend); peptide 0.01 nM – 1 µM; mean ± SEM, n = 3, triplicate determinations; vs H3 acid: * H3 amide, ** p<0.01 H3 A-acid; read-out: RXFP4 cAMP pEC50 (converted). As for the experimental part: (§1) The ability of the peptides to activate the receptors RXFP3/RXFP4 was assessed by measuring their influence on cAMP signalling in CHO-K1 cells stably expressing RXFP3 or RXFP4 transfected with a pCRE-β-galactosidase reporter gene construct as previously described. A single concentration of forskolin was used to stimulate cAMP signalling in cells expressing RXFP3 (1 µM) and RXFP4 (5 µM) and peptide induced inhibition of cAMP signalling was measured by adding increasing concentrations of the peptides (0.01 nM – 1 µM). The ability of the peptides to inhibit forskolin-induced cAMP response (pEC50) was measured and expressed as mean ± SEM from three independent experiments with triplicate determinations within each assay. The inhibition curves were fitted to a single-site sigmoidal dose-response curve with variable slope using Graphpad PRISM 5.
(§2) Figure 3 Receptor binding affinity (pKi) and cAMP activity (pEC-50) curves of H3 relaxin and its variants at RXFP4. A) Competition binding curves of H3 relaxin variants at RXFP4 using a single concentration of Eu-INSL5 (2.5 nM) in the presence of increasing concentrations of the H3 relaxin peptides. B) RXFP4 activation curves of H3 relaxin variants measured in a cAMP activity assays in the presence of 1 µM forskolin. The data were expressed as mean ± SEM from at least three independent experiments.

Assay [2] has as its target T1, RXFP4. Briefly: Competition binding, Eu-labelled mouse INSL5, CHO-K1 cells expressing RXFP4. To be noted: CHO-K1 cells stably expressing RXFP4; Eu-labelled mouse INSL5 2.5 nM; one site competition fit; mean ± SEM, n = 3, triplicate determinations; vs H3 acid: * H3 amide, ** p<0.01 H3 A-acid; read-out: RXFP4 Eu-INSL5 pKi (converted). The protocol: (§3) The receptor binding affinity of the peptides was measured using CHO-K1 cells stably expressing RXFP3 and RXFP4. The competition binding assays were carried out as previously described, [27]. Briefly, a single concentration of Eu-labelled I5/R3 (0.5 nM) or Eu-labelled mouse INSL5 (2.5 nM) were used in presence of increasing concentration of peptides. The data were analyzed using GraphPad PRISM 5 (GraphPad Inc., San Diego, USA). The europium binding curves were fitted to a one site competition curve and the pKi values were expressed as the mean ± SEM of at least three independent experiments with triplicate determinations within each assay.
as §2

Assay [3] concerns the target T2, RXFP3 (Homo sapiens, UniProt Q9NSD7).
T2 construct: expressed in transfected cells
T2 sequence (Q9NSD7 1-469): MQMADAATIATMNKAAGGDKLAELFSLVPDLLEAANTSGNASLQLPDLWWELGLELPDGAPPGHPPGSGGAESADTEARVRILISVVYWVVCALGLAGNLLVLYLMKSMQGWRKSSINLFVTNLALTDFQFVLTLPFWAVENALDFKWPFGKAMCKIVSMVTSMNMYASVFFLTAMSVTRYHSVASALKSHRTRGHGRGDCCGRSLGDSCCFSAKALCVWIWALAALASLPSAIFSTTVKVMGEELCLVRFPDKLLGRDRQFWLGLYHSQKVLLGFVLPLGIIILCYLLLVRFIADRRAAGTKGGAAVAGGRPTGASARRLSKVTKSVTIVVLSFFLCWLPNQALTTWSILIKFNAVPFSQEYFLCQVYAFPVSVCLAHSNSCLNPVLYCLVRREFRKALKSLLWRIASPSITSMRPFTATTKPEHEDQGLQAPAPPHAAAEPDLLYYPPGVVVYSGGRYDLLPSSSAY
The experiment in a line: Competition binding, Eu-labelled I5/R3, CHO-K1 cells expressing RXFP3. To be noted: CHO-K1 cells stably expressing RXFP3; Eu-I5/R3 0.5 nM; one site competition fit; mean ± SEM, n in parentheses in cell (3; H3 amide 4), triplicate determinations; ** p<0.01 vs H3 acid (H3 amide, H3 A-acid); read-out: RXFP3 Eu-H3/I5 pKi (converted). As for the experimental part: as §3
(§4) Figure 2 Receptor binding affinity (pKi) and cAMP activity (pEC-50) curves of H3 relaxin and its variants at RXFP3. A) Competition binding curves of H3 relaxin variants using a single concentration of Eu-I5/R3 (0.5 nM) in the presence of increasing concentrations of the H3 relaxin peptides. B) RXFP3 activation curves of H3 relaxin variants measured in a cAMP activity assay in the presence of 5 µM forskolin. The data were expressed as mean ± SEM. from at least three independent experiments.

Assay [4] has as its target T2, RXFP3. The experiment in a line: cAMP activity (inhibition of forskolin-induced cAMP), CHO-K1 cells expressing RXFP3. To be noted: CHO-K1 RXFP3, pCRE-β-galactosidase reporter; forskolin 1 µM (method) / 5 µM (Fig. 2 legend); peptide 0.01 nM – 1 µM; mean ± SEM, n = 3, triplicate determinations; ** p<0.01 vs H3 acid (H3 amide, H3 A-acid); read-out: RXFP3 cAMP pEC50 (converted). It counts as cell-based. The protocol:
as §1, §4

The conditions of assay [5]: cited from earlier work; for activity by C-terminal form: C-terminal amide vs acid. From the text:
The bioactivity of many polypeptide hormones often requires a form of post-translational modification of their precursors. An example of a widespread modification is C-terminal amidation which often leads to an increase in bioactivity of peptides [32]–[35]. In some cases, amidation of the C-terminus has been reported to have detrimental effect on the activity of peptides, [36]. […] In the case of relaxin family peptides, H2 relaxin and INSL3, both p ...

No end group written: not given here.

T1 sequence (Q8TDU9 whole entry, species assumed): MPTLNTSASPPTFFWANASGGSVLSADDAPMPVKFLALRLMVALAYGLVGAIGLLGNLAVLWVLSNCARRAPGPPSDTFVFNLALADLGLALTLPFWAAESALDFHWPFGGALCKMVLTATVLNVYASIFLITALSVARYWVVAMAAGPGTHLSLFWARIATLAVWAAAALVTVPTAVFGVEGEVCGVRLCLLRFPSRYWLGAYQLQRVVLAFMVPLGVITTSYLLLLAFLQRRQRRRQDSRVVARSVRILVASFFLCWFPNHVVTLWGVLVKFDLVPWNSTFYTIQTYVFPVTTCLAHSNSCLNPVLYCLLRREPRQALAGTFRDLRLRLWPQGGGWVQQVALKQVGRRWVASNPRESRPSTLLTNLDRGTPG

Consider `CC[C@H](C)[C@@H]1NC(=O)[C@H](Cc2ccccc2)NC(=O)[C@H](CCC(=O)O)NC(=O)[C@H](CCCNC(=N)N)NC(=O)CNC(=O)[C@@H](NC(=O)[C@H](CC(C)C)NC(=O)[C@H](CCCNC(=N)N)NC(=O)[C@@H](NC(=O)CNC(=O)[C@H](Cc2ccc(O)cc2)NC(=O)[C@@H]2CCCN2C(=O)[C@H](C)NC(=O)[C@H](C)NC(=O)[C@@H](N)CCCNC(=N)N)C(C)C)CSSC[C@@H]2NC(=O)[C@@H](NC(=O)[C@H](CO)NC(=O)[C@H](CO)NC(=O)[C@H](CO)NC(=O)[C@H](CC(C)C)NC(=O)CNC(=O)[C@H](C)NC(=O)[C@H](CC(C)C)NC(=O)[C@@H](NC(=O)[C@@H](N)CC(=O)O)C(C)C)CSSC[C@H](NC(=O)CNC(=O)[C@H](Cc3c[nH]c4ccccc34)NC(=O)[C@H](CCCCN)NC2=O)C(=O)N[C@@H](CO)C(=O)N[C@@H](CCCCN)C(=O)N[C@@H](CO)C(=O)N[C@@H](CCC(=O)O)C(=O)N[C@@H]([C@@H](C)CC)C(=O)N[C@@H](CO)C(=O)N[C@@H](CO)C(=O)N[C@@H](CC(C)C)C(=O)N[C@H](C(=O)O)CSSC[C@@H](C(=O)NCC(=O)NCC(=O)N[C@@H](CO)C(=O)N[C@@H](CCCNC(=N)N)C(=O)N[C@@H](Cc2c[nH]c3ccccc23)C(N)=O)NC(=O)[C@H]([C@@H](C)O)NC(=O)[C@H](Cc2ccccc2)NC(=O)[C@H]([C@@H](C)CC)NC(=O)[C@H](C(C)C)NC(=O)[C@H](C)NC(=O)[C@H](CCCNC(=N)N)NC1=O` [H3 A-acid], for which the EC50 is 34.7 nM at RXFP4 [1] and 4.9 nM on RXFP3 [4]. The Ki at RXFP4 [2] was 117 nM; at RXFP3 [3], 151 nM.

Take `CC[C@H](C)[C@@H]1NC(=O)[C@H](Cc2ccccc2)NC(=O)[C@H](CCC(=O)O)NC(=O)[C@H](CCCNC(=N)N)NC(=O)CNC(=O)[C@@H](NC(=O)[C@H](CC(C)C)NC(=O)[C@H](CCCNC(=N)N)NC(=O)[C@@H](NC(=O)CNC(=O)[C@H](Cc2ccc(O)cc2)NC(=O)[C@@H]2CCCN2C(=O)[C@H](C)NC(=O)[C@H](C)NC(=O)[C@@H](N)CCCNC(=N)N)C(C)C)CSSC[C@@H]2NC(=O)[C@@H](NC(=O)[C@H](CO)NC(=O)[C@H](CO)NC(=O)[C@H](CO)NC(=O)[C@H](CC(C)C)NC(=O)CNC(=O)[C@H](C)NC(=O)[C@H](CC(C)C)NC(=O)[C@@H](NC(=O)[C@@H](N)CC(=O)O)C(C)C)CSSC[C@H](NC(=O)CNC(=O)[C@H](Cc3c[nH]c4ccccc34)NC(=O)[C@H](CCCCN)NC2=O)C(=O)N[C@@H](CO)C(=O)N[C@@H](CCCCN)C(=O)N[C@@H](CO)C(=O)N[C@@H](CCC(=O)O)C(=O)N[C@@H]([C@@H](C)CC)C(=O)N[C@@H](CO)C(=O)N[C@@H](CO)C(=O)N[C@@H](CC(C)C)C(=O)N[C@H](C(N)=O)CSSC[C@@H](C(=O)NCC(=O)NCC(=O)N[C@@H](CO)C(=O)N[C@@H](CCCNC(=N)N)C(=O)N[C@@H](Cc2c[nH]c3ccccc23)C(=O)O)NC(=O)[C@H]([C@@H](C)O)NC(=O)[C@H](Cc2ccccc2)NC(=O)[C@H]([C@@H](C)CC)NC(=O)[C@H](C(C)C)NC(=O)[C@H](C)NC(=O)[C@H](CCCNC(=N)N)NC1=O` [H3 B-acid]: the EC50 was 1.32 nM on RXFP4 [1] and 0.955 nM on RXFP3 [4]. The Ki at RXFP4 [2] was 19.1 nM; on RXFP3 [3], 24 nM.

`CC[C@H](C)[C@@H]1NC(=O)[C@H](Cc2ccccc2)NC(=O)[C@H](CCC(=O)O)NC(=O)[C@H](CCCNC(=N)N)NC(=O)CNC(=O)[C@@H](NC(=O)[C@H](CC(C)C)NC(=O)[C@H](CCCNC(=N)N)NC(=O)[C@@H](NC(=O)CNC(=O)[C@H](Cc2ccc(O)cc2)NC(=O)[C@@H]2CCCN2C(=O)[C@H](C)NC(=O)[C@H](C)NC(=O)[C@@H](N)CCCNC(=N)N)C(C)C)CSSC[C@@H]2NC(=O)[C@@H](NC(=O)[C@H](CO)NC(=O)[C@H](CO)NC(=O)[C@H](CO)NC(=O)[C@H](CC(C)C)NC(=O)CNC(=O)[C@H](C)NC(=O)[C@H](CC(C)C)NC(=O)[C@@H](NC(=O)[C@@H](N)CC(=O)O)C(C)C)CSSC[C@H](NC(=O)CNC(=O)[C@H](Cc3c[nH]c4ccccc34)NC(=O)[C@H](CCCCN)NC2=O)C(=O)N[C@@H](CO)C(=O)N[C@@H](CCCCN)C(=O)N[C@@H](CO)C(=O)N[C@@H](CCC(=O)O)C(=O)N[C@@H]([C@@H](C)CC)C(=O)N[C@@H](CO)C(=O)N[C@@H](CO)C(=O)N[C@@H](CC(C)C)C(=O)N[C@H](C(=O)O)CSSC[C@@H](C(=O)NCC(=O)NCC(=O)N[C@@H](CO)C(=O)N[C@@H](CCCNC(=N)N)C(=O)N[C@@H](Cc2c[nH]c3ccccc23)C(=O)O)NC(=O)[C@H]([C@@H](C)O)NC(=O)[C@H](Cc2ccccc2)NC(=O)[C@H]([C@@H](C)CC)NC(=O)[C@H](C(C)C)NC(=O)[C@H](C)NC(=O)[C@H](CCCNC(=N)N)NC1=O` [H3 acid]: the EC50 at RXFP4 [1] is 1.15 nM. The Ki on RXFP4 [2] is 8.71 nM; at RXFP3 [3], 18.6 nM.

In the case of Oxytocin: polypeptide hormone, the “activity by C-terminal form” value in assay [5] is given as “only active as a C-terminal amide form”.

Regarding angiotensin II: polypeptide hormone, in assay [5], the “activity by C-terminal form” value is on record as “active as a C-terminal acid form”.

B1: INSL3: relaxin family peptide (peptide, UniProt P51460 21-55; P51460 106-131, looked up)
Insulin-like 3 B chain: LGPAPTPEMREKLCGHHFVRALVRVCGGPRWSTEA
Insulin-like 3 A chain: AAATNPARYCCLSGCTQQDLLTLCPY
modifications: not fully specified (bridges); ends and bridges not checked
notes: relaxin family peptide
Consider B1, for which the “activity of acid vs amide form” value in assay [5] is listed as “equally active either in acid or amide form”.

(Values after PMC3859608, “C-Terminus of the B-Chain of Relaxin-3 Is Important for Receptor Activity” (PLoS ONE, 2013).)
